Our source for the Ki and ED50 values is ChEMBL document CHEMBL1127981, “Novel ether derivatives of alkyl piperidines as potential sigma / 5HT2 antipsychotic agents” (Bioorg Med Chem Lett, 1994).

One experiment has as its target D(2) dopamine receptor (Homo sapiens, UniProt P14416). Nature of the experiment: Binding affinity towards Dopamine receptor D2 using [3H]spiperone as radioligand.
Experiment [1] deals with Serotonin 2 (5-HT2) receptor (Homo sapiens, UniProt P41595+P28223+P28335). In words: Binding affinity towards 5-HT2 receptor using [3H]ketanserin as radioligand. The experiment is classed as protein assay.
Experiment [2] concerns the target Sigma non-opioid intracellular receptor 1 (Homo sapiens, UniProt Q99720). In words: Binding affinity towards sigma receptor using [3H](+)-SKF-10047 as radioligand.
The nature of experiment [3]: In vivo potency was determined in anti-mescaline scratch assay(peroral administration). It is filed as functional, organism-based.

As usually defined, the Ki is a dissociation constant, usually derived from enzyme kinetics or from competition with a known ligand. Lower therefore signals higher affinity. As usually defined, the ED50 is the midpoint of the dose-response relation. Low readings indicate greater potency, high ones weaker potency.

Chain of Sigma non-opioid intracellular receptor 1 (Q99720 whole entry): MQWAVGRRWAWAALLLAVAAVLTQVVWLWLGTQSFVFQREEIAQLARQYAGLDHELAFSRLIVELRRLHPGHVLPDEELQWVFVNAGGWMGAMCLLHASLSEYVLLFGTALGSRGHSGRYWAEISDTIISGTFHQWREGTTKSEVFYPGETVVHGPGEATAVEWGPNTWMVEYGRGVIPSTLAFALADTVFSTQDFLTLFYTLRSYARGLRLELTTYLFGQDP
Chain of D(2) dopamine receptor (P14416 whole entry): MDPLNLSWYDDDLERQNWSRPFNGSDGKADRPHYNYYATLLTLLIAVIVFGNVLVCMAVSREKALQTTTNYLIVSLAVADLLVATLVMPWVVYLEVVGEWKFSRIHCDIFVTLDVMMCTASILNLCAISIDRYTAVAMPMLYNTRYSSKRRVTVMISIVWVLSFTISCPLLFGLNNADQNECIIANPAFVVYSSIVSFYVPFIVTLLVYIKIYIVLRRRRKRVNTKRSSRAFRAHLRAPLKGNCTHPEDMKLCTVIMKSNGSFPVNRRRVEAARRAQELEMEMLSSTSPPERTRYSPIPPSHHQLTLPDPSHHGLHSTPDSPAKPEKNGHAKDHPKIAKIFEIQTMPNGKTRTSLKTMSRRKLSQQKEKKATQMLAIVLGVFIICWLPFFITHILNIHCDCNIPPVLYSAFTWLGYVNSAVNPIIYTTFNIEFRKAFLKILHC

Turning to `C(/C=C/c1ccccc1)=C\OCC1CCN(Cc2ccccc2)CC1`, the values for the Ki (on D(2) dopamine receptor; in experiment [1]; in experiment [2]) were more than 10 µM, 0.547 µM and 0.212 µM, respectively.
`FC(F)(F)c1ccc(/C=C/COCC2CCN(Cc3ccccc3)CC2)cc1` registered an ED50 in experiment [3] of more than 10 mg/kg. In addition, the Ki at D(2) dopamine receptor came to 4.32 µM; in experiment [1], 0.324 µM; in experiment [2], 0.028 µM.
As for `C(#Cc1ccccc1)COCCC1CCN(CCc2ccccc2)CC1`, the ED50 in experiment [3] was found to be 4.1 mg/kg. Moreover, the figures for the Ki (at D(2) dopamine receptor; in experiment [1]; in experiment [2]) were 0.131 µM, 0.021 µM and 0.007 µM, respectively.
Taken in the same sequence, the figures for `C(#Cc1ccccc1)COCCC1CCN(CC2CC2)CC1` were more than 10 mg/kg, more than 10 µM, 0.947 µM and 0.001 µM.
For `C(=C\c1ccccc1)/COCC1CCN(Cc2ccccc2)CC1` the same measures were 6 mg/kg, more than 10 µM, 0.044 µM and 0.007 µM.
Taken in the same sequence, the figures for `C(#Cc1ccccc1)COCC1CCN(Cc2ccccc2)CC1` were more than 30 mg/kg, more than 10 µM, 0.254 µM and 0.004 µM.
On to `C(=C/c1ccccc1)/COCC1CCN(Cc2ccccc2)CC1`, for which the Ki on D(2) dopamine receptor is more than 10 µM; in experiment [1], more than 10 µM; in experiment [2], 0.09 µM.
On to `C(=C\c1ccccc1)/COCC1CCN(CCc2ccccc2)CC1`, for which the ED50 in experiment [3] was more than 5 mg/kg. The Ki on D(2) dopamine receptor worked out at 0.241 µM; in experiment [1], 0.25 µM; in experiment [2] it was 0.005 µM.
Taken in the same sequence, the figures for `C(=C\c1ccccc1)/COCC1CCN(CCCc2ccccc2)CC1` were 9 mg/kg, 0.948 µM, 0.283 µM and 0.018 µM.
Taken in the same sequence, the figures for `C/C=C/CN1CCC(COC/C=C/c2ccccc2)CC1` were more than 30 mg/kg, more than 10 µM, 0.65 µM and 0.008 µM.
`C(#Cc1ccccc1)COC1CCN(CCc2ccccc2)CC1` displayed an ED50 in experiment [3] of more than 10 mg/kg. For the same compound, the Ki on D(2) dopamine receptor is 1.36 µM; in experiment [1], 0.072 µM; in experiment [2] it was 0.004 µM.
Taken in the same sequence, the figures for `C(COCC1CCN(Cc2ccccc2)CC1)=C(c1ccccc1)c1ccccc1` were more than 30 mg/kg, 0.62 µM, 0.029 µM and 0.022 µM.
For `c1ccc(CCCOCC2CCN(Cc3ccccc3)CC2)cc1` the same measures were more than 30 mg/kg, 0.554 µM, 0.18 µM and 0.027 µM.
For `Fc1ccc(C#CCOCCC2CCN(CCc3ccccc3)CC2)cc1` the same measures were more than 10 mg/kg, 1.06 µM, 0.081 µM and 0.002 µM.
`Fc1ccc(/C=C/COCC2CCN(Cc3ccccc3)CC2)cc1`: the ED50 in experiment [3] was found to be 8 mg/kg. Besides, the values for the Ki (at D(2) dopamine receptor; in experiment [1]; in experiment [2]) were 2.18 µM, 0.031 µM and 0.012 µM, respectively.
For `C(=C\c1ccccc1)/COCC1CCN(Cc2cccc3ccccc23)CC1` the same measures were more than 10 mg/kg, more than 10 µM, 0.284 µM and 0.008 µM.
Taken in the same sequence, the figures for `C(=C\c1ccccc1)/COCC1CCN(CC2CC2)CC1` were more than 30 mg/kg, more than 10 µM, 1.847 µM and 0.005 µM.
For `Fc1ccc(CCN2CCC(CCOCC#Cc3ccccc3)CC2)cc1` the same measures were 3.6 mg/kg, 1.84 µM, 0.085 µM and 0.018 µM.
